Test results taken from article PMC5400507, “The neuropeptide F/nitric oxide pathway is essential for shaping locomotor plasticity underlying locust phase transition” (eLife, 2017).

How the values were obtained:
Type in all cases: in vivo, Locusta migratoria
NOS = assay: Total NOS activity in locust brains (NOS Kit); details: n = 4 samples
Procedure: (§1) An enzyme-linked immunosorbent assay (ELISA) kit (R and D Systems, Inc.) was used to detect the relative cAMP level in locust brains. For NO content determination, Total Nitric Oxide Assay Kit (Beyotime) was used. Because NO molecules are unstable, the total NO levels in all test groups were assessed by detecting the content of nitrate and nitrite. The NOS Kit (Nanjing Jiancheng Bioengineering Institute) was used to detect the total NOS activity in locust brains. Protein concentrations were measured using the BicinChoninic Acid (BCA) Protein Assay Kit (Thermo). All of these three measurements were performed according to the manufacturer’s instructions. Each measurement was from at least four biological replicates (12–16 locusts/replicate). Data were normalized to the protein concentration.

locusts = assay: Behavioral arena assay (Pgreg, TDM, TDMV, attraction index); details: for attraction index: 2 hr after drug injection (L-NAME in G-phase, SNAP in S-phase) or 48 hr after NOS knockdown in G-phase; for behavioral phase state (Pgreg) / total distance moved (TDM) / total duration of movement (TDMV): n ≥ 23
Procedure: The concentrations of peptides and drugs that were used were determined according to described methods ([[…] and Yates, 2007]; [Van […] et al., 2013b]). […] Working solutions of different concentrations (0.05, 0.5 and 2.5 μg/μl) were injected into the hemolymph in the heads of fourth-instar locusts using a microinjector (2 μl/locust). The arena behavioral assay was conducted 1 hr, 2 hr, and 4 hr following injection. […] Working solution (100 μM) was microinjected into the heads of G-phase locusts (2 μl/locust). SNAP was dissolved with DMSO to prepare 100 mM stock solution. Working solution (200 μM) was microinjected into the heads of S-phase locusts (2 μl/locust). Locust behaviors were tested 2 hr after drug injection. The behavioral assay was performed in a rectangular Perspex arena (40 cm × 30 cm × 10 cm) containing three chambers. The left chamber (7.5 cm × 30 cm × 10 cm) contained 30 fourth-instar G-phase locusts as a stimulus group, and the right chamber was empty (7.5 cm × 30 cm × 10 cm). Locusts behaviors were recorded for 300 s by an EthoVision video tracking system and analyzed according to the binary logistic regression model constructed in our previous work ([Guo et al., 2011]). Details are as follow: […] AI = total duration in stimulus area - total duration in the opposite of stimulus area; this parameter represents the extent to which the tested animals are attracted by the stimulus group. TDMV (total duration of movement) and TDM (total distance moved) indicate the locomotor activity levels. Pgreg indicates the probability that a locust is considered gregarious. […] In the behavioral assay, 16-35 locusts were tested for each treatment according to the sample size reported in previous studies ([Ott et al., 2012]; [Ma et al., 2011]). […] Two hours later, SNAP (200 μM, 2 μl/locust) was injected into the heads of the experimental insects. Control insects were treated with an equal amount of saline. The injected locusts were then raised under the gregarious condition and subjected to behavioral analysis 2 hr after injection of SNAP. For S-phase locusts, […] or […] was microinjected into the brains of fourth-instar S-phase insects. […] The insects treated with dsGFP were used as a control.

NO = NO level in locust brains (Total Nitric Oxide Assay Kit); details: n = 4 samples
Procedure: as §1

[1] = G-phase locust brains, 2 hr after L-NAME injection or 48 hr after NOS knockdown
[2] = G-phase locusts, 2 hr after injection of L-NAME (100 μM, 2 μl/locust) or 48 hr after NOS knockdown
[3] = S-phase locusts pre-injected with dsNPFR or dsNPYR, 2 hr after L-NAME injection, n ≥ 16
[4] = S-phase locust brains, 2 hr after SNAP injection
[5] = G-phase locusts pre-injected with NPF1a or NPF2 peptide, SNAP 200 μM, 2 μl/locust 2 hr later, tested 2 hr after SNAP, n ≥ 24
[6] = S-phase locusts, 2 hr after injection of SNAP (200 μM, 2 μl/locust)

Compound	NOS activity (NOS; [1])	attraction index (locusts)	behavioral phase state (Pgreg) (locusts; [2])	total distance moved (TDM) (locusts; [2])	total duration of movement (TDMV) (locusts; [2])	Pgreg increase induced by NPFR or NPYR knockdown (locusts; [3])	total distance moved increase induced by NPFR or NPYR knockdown (locusts; [3])	total duration of movement increase induced by NPFR or NPYR knockdown (locusts; [3])	NO levels (NO; [1])	NOS activity (NOS; [4])	Pgreg, rescue (locusts; [5])	total distance moved, rescue (locusts; [5])	total duration of movement, rescue (locusts; [5])	behavioral phase state (Pgreg) (locusts; [6])	total distance moved (TDM) (locusts; [6])	total duration of movement (TDMV) (locusts; [6])	NO levels (NO; [4])
COC(=O)[C@@H](N)CCCNC(N)=N[N+](=O)[O-] [L-NAME, N-Nitro-L-arginine Methyl Ester]	significantly reduced	did not change the attraction index	S-phase-like behavior	strongly suppressed	strongly suppressed	robustly abolished the increase	robustly abolished the increase	robustly abolished the increase	significantly reduced	–	–	–	–	–	–	–	–
S-nitroso-N-acetyl-penicillamine [SNAP]	–	did not change the attraction index	–	–	–	–	–	–	–	without affecting NOS activity	robust recovery	robust recovery	robust recovery	pushed locust behavioral change from S-phase to G-phase state	enhanced	enhanced	increased
